Experimental findings from patent publication US20150119344A1, “COMPOSITIONS AND METHODS FOR THE TREATMENT OF CARDIOVASCULAR AND NEUROLOGICAL DISEASES” (priority 2012, published 2015) are described below.

A short description of this data set: Water solubility: distilled water added to a weighed amount until a clear solution was obtained. The data set is classed as physicochemical. Conditions: for solubility: thermodynamic from solid, distilled water, weight in mg divided by volume of the clear solution in mL. Here is the method:
Measurement of the water solubility of the test compounds is accomplished by using methods well known to those skilled in the art. Specifically, to a weighed amount of the test compound of the example compound Formula I (Ib) distilled water was added in small proportions until a clear solution was obtained. The total volume of the solution is measured. The water solubility is calculated by dividing the weight of the salt, in milligrams (mg), by the volume of the solution, in mL. […] The compound of Formula I (Ib) is therefore, at least 368 times more soluble in water than EPA itself. This is a clear indication of an unexpectedly high degree of bioavailability of the compositions of the invention. Highly water soluble medicinal preparations, when administered orally, result in efficient absorption from the gastrointestinal tract in to systemic circulation. Furthermore, water soluble preparations are especially suitable for parenteral administration.

In general, solubility refers to how much of the substance goes into solution per volume. The low end stands for a poorly soluble substance, the high end for a readily soluble substance. As to `CC/C=C\C/C=C\C/C=C\C/C=C\C/C=C\CCCC(=O)OCC1OC(O)(CO)C(O)C1O` (stereo not drawn) [Formula I (Ib)], the solubility worked out at 68.6 mg/mL. In addition, the “times more soluble in water than EPA” value (ratio of water solubility versus EPA) is on record as “at least 368 times”.

As to `CC/C=C\C/C=C\C/C=C\C/C=C\C/C=C\CCCC(=O)O` [EPA, Eicosapentaenoic Acid, reference compound], the solubility is less than 0.2 mg/mL.
